Test results reported in ChEMBL document CHEMBL3525902, “In vitro metabolism of oxymetazoline: evidence for bioactivation to a reactive metabolite” (Drug Metab Dispos, 2011).

Legend:
[1] = system: Liver; experiment: Drug level in NADPH supplemented human liver S9 fraction treated with 50 uM oxymetazoline assessed as compound formation after 1 hr by LC-MS/MS method; format: ADME, subcellular; settings: s9, 1 h
[2] = Drug level in NADPH supplemented rabbit liver S9 fraction treated with 50 uM oxymetazoline assessed as compound formation after 1 hr by LC-MS/MS method; format: ADME, subcellular, Oryctolagus cuniculus; settings: s9, 1 h
[3] = Retention time of the compound at 50 uM by LC-MS/MS method; format: physicochemical
[4] = Drug level in NADPH supplemented rat liver S9 fraction treated with 50 uM oxymetazoline assessed as compound-glutathione conjugate formation in presence of glutathione by LC-MS/MS method; format: ADME, subcellular
[5] = system: Liver; experiment: Drug level in NADPH supplemented rat liver S9 fraction treated with 50 uM oxymetazoline assessed as compound formation after 1 hr by LC-MS/MS method; format: ADME, subcellular; settings: s9, 1 h
[6] = Drug level in NADPH supplemented human liver S9 fraction treated with 50 uM oxymetazoline assessed as compound-glutathione conjugate formation in presence of glutathione by LC-MS/MS method; format: ADME, subcellular
[7] = molecular target: T1, Cytochrome P450 2C19 (Homo sapiens, UniProt P33261); experiment: Activity of human recombinant CYP2C19 assessed as compound formation from 50 uM oxymetazoline in presence of NADPH and glutathione by LC-MS/MS method; format: ADME; settings: recombinant enzyme
[8] = Drug level in NADPH supplemented rabbit liver S9 fraction treated with 50 uM oxymetazoline assessed as compound-glutathione conjugate formation in presence of glutathione by LC-MS/MS method; format: ADME, subcellular, Oryctolagus cuniculus
[9] = Drug level in NADPH supplemented rabbit liver S9 fraction treated with 50 uM oxymetazoline assessed as compound-N-acetyl cysteine conjugate formation in presence of N-acetyl cysteine by LC-MS/MS method; format: ADME, subcellular, Oryctolagus cuniculus
[10] = system: Liver microsome; experiment: Drug level in NADPH supplemented rat liver microsomes fraction treated with 50 uM oxymetazoline assessed as compound formation after 1 hr by LC-MS/MS method; format: ADME
[11] = system: Liver microsome; experiment: Drug level in NADPH supplemented human liver microsomes fraction treated with 50 uM oxymetazoline assessed as compound formation after 1 hr by LC-MS/MS method; format: ADME
[12] = Drug level in NADPH supplemented rabbit liver microsomes fraction treated with 50 uM oxymetazoline assessed as compound formation after 1 hr by LC-MS/MS method; format: ADME, Oryctolagus cuniculus
[13] = molecular target: T1, Cytochrome P450 2C19; experiment: Activity of human recombinant CYP2C19 assessed as compound formation from 50 uM oxymetazoline in presence of NADPH by LC-MS/MS method; format: ADME; settings: recombinant enzyme

T1 sequence (P33261 whole entry): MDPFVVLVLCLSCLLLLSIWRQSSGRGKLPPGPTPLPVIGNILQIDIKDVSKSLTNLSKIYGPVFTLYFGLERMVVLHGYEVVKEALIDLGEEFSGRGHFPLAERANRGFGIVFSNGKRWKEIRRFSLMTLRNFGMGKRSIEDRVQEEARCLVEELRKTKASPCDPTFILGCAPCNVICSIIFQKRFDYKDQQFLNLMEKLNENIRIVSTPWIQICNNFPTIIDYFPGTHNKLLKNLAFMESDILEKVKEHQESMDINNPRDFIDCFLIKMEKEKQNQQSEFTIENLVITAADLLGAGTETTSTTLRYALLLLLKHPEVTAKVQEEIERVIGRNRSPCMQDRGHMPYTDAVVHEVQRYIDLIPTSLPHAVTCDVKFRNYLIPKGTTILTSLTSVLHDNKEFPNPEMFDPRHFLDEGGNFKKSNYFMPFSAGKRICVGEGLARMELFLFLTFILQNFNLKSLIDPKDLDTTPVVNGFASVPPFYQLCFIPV

| Compound | Drug metabolism [1] | Drug metabolism [2] | Retention_time [3] [min] | Drug metabolism [4] | Drug metabolism [5] | Drug metabolism [6] | Drug metabolism [7] | Drug metabolism [8] | Drug metabolism [9] | Drug metabolism [10] | Drug metabolism [11] | Drug metabolism [12] | Drug metabolism [13] |
| --- | --- | --- | --- | --- | --- | --- | --- | --- | --- | --- | --- | --- | --- |
| Cc1c(O)c(C(C)(C)C)cc(CSC[C@H](NC(=O)CC[C@H](N)C(=O)O)C(=O)NCC(=O)O)c1Cc1ncc[nH]1 | metabolite_detected | metabolite_detected | 4.65 | metabolite_detected | metabolite_detected | metabolite_detected | metabolite_detected | metabolite_detected |  |  |  |  |  |
| CC(=O)N[C@@H](CSCc1cc(C(C)(C)C)c(O)c(C)c1CC1=NCCN1)C(=O)O |  |  |  |  |  |  |  |  | metabolite_detected |  |  |  |  |
| Cc1c(O)c(C(C)(C)C)cc(CSC[C@H](NC(=O)CC[C@H](N)C(=O)O)C(=O)NCC(=O)O)c1CC1=NCCN1 | metabolite_detected | metabolite_detected | 4.22 | metabolite_detected | metabolite_detected | metabolite_detected | metabolite_detected | metabolite_detected |  |  |  |  |  |
| Cc1cc(C(C)(C)C)c(O)c(C)c1Cc1ncc[nH]1 | metabolite_detected | metabolite_detected | 12.36 |  | metabolite_detected |  |  |  | metabolite_detected | metabolite_detected | metabolite_detected | metabolite_detected | metabolite_detected |
| Cc1cc(C(C)(C)CO)c(O)c(C)c1Cc1ncc[nH]1 | metabolite_detected | metabolite_detected | 5.64 | metabolite_detected | metabolite_detected | metabolite_detected |  | metabolite_detected |  | metabolite_detected | metabolite_detected | metabolite_detected | metabolite_detected |
| Cc1cc(C(C)(C)CO)c(O)c(C)c1CC1=NCCN1 | metabolite_detected | metabolite_detected | 4.95 | metabolite_detected | metabolite_detected | metabolite_detected |  | metabolite_detected |  | metabolite_detected | metabolite_detected | metabolite_detected | metabolite_detected |
| Cc1c(O)c(C(C)(C)C)cc(CSC[C@H](N)C(=O)O)c1Cc1ncc[nH]1 |  | metabolite_detected | 3.48 |  |  |  |  |  |  |  |  |  |  |
| Cc1c(O)c(C(C)(C)C)cc(CSC[C@H](N)C(=O)O)c1CC1=NCCN1 | metabolite_detected | metabolite_detected | 3.17 |  |  |  |  |  |  |  |  |  |  |
| Cc1c(O)c(C(C)(C)CO)cc(CSC[C@H](NC(=O)CC[C@H](N)C(=O)O)C(=O)NCC(=O)O)c1Cc1ncc[nH]1 |  | metabolite_detected | 6.34 |  |  |  |  |  |  |  |  |  |  |
| Cc1c(O)c(C(C)(C)CO)cc(CSC[C@H](NC(=O)CC[C@H](N)C(=O)O)C(=O)NCC(=O)O)c1CC1=NCCN1 |  | metabolite_detected | 3.86 |  |  |  |  |  |  |  |  |  |  |
